From PubChem BioAssay AID1845194 (Molecular Pharmacology Branch, DTP, NCI, 2023)

System: 287954-098-R-J1 tumor spheroid viability
Assay: Anticancer human tumor 287954-098-R-J1 patient-derived Ewing sarcoma cell line growth inhibition
Settings: spheroids with HUVEC and MSC; for IC50: curve of first compound; for viability, T/C: stronger effect = lower value
Method in brief: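 Complex spheroids of malignant cells with endothelial cells and mesenchymal stem cells; agents alone or combined, from near clinical Cmax (or 10 microM if unknown) down in half-log steps, 0.25% DMSO final.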
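Also: spheroids exposed to compound for 7 days before viability readout.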
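For viability, T/C in this document: luminescent signal taken as surrogate of viable cell content; 100% = DMSO vehicle control viability and lower means growth inhibition.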

## CC(C)n1c(=O)n(C)c2cnc3cc(F)c(-c4ccc(OCCCN5CCCCC5)nc4)cc3c21 + COc1cc2c(cc1O)CCNC21CSC2c3c(OC(C)=O)c(C)c4c(c3C(COC1=O)N1C(O)C3Cc5cc(C)c(OC)c(O)c5C(C21)N3C)OCO4
Second compound 30 pM
  IC50: 4530 nM
Second compound 94.9 pM
  IC50: < 31.6 nM
Second compound 0.0003 µM
  IC50: < 31.6 nM
Second compound 0.000949 µM
  IC50: < 31.6 nM
Second compound 0.003 µM
  IC50: < 31.6 nM
Second compound 30 pM, first compound 0.0316 µM
  viability, T/C: 44.4%
Second compound 30 pM, first compound 0.1 µM
  viability, T/C: 84.8%
Second compound 30 pM, first compound 0.316 µM
  viability, T/C: 62.4%
Second compound 30 pM, first compound 1 µM
  viability, T/C: 85.3%
Second compound 30 pM, first compound 3.16 µM
  viability, T/C: 81.3%
Second compound 30 pM, first compound 10 µM
  viability, T/C: 2.07%
Second compound 94.9 pM, first compound 0.0316 µM
  viability, T/C: 14.9%
Second compound 94.9 pM, first compound 0.1 µM
  viability, T/C: 14.4%
Second compound 94.9 pM, first compound 0.316 µM
  viability, T/C: 8.68%
Second compound 94.9 pM, first compound 1 µM
  viability, T/C: 14.2%
Second compound 94.9 pM, first compound 3.16 µM
  viability, T/C: 8.71%
Second compound 94.9 pM, first compound 10 µM
  viability, T/C: 0.47%
Second compound 0.0003 µM, first compound 0.0316 µM
  viability, T/C: 1.47%
Second compound 0.0003 µM, first compound 0.1 µM
  viability, T/C: 1.47%
Second compound 0.0003 µM, first compound 0.316 µM
  viability, T/C: 1.52%
Second compound 0.0003 µM, first compound 1 µM
  viability, T/C: 1.56%
Second compound 0.0003 µM, first compound 3.16 µM
  viability, T/C: 1.71%
Second compound 0.0003 µM, first compound 10 µM
  viability, T/C: 0.41%
Second compound 0.000949 µM, first compound 0.0316 µM
  viability, T/C: 0.31%
Second compound 0.000949 µM, first compound 0.1 µM
  viability, T/C: 0.27%
Second compound 0.000949 µM, first compound 0.316 µM
  viability, T/C: 0.36%
Second compound 0.000949 µM, first compound 1 µM
  viability, T/C: 0.6%
Second compound 0.000949 µM, first compound 3.16 µM
  viability, T/C: 0.33%
Second compound 0.000949 µM, first compound 10 µM
  viability, T/C: 0.36%
Second compound 0.003 µM, first compound 0.0316 µM
  viability, T/C: 0.18%
Second compound 0.003 µM, first compound 0.1 µM
  viability, T/C: 0.2%
Second compound 0.003 µM, first compound 0.316 µM
  viability, T/C: 0.18%
Second compound 0.003 µM, first compound 1 µM
  viability, T/C: 0.23%
Second compound 0.003 µM, first compound 3.16 µM
  viability, T/C: 0.25%
Second compound 0.003 µM, first compound 10 µM
  viability, T/C: 0.4%

## CC1COCCN1c1cc(-c2ccnn2C)c2ccnc(-c3ccn[nH]3)c2n1 (stereo not given) + Cn1nnc2c(C(N)=O)ncn2c1=O
Second compound 1 µM
  IC50: 171 nM
Second compound 3.16 µM
  IC50: 187 nM
Second compound 10 µM
  IC50: 96.3 nM
Second compound 31.6 µM
  IC50: 98.6 nM
Second compound 100 µM
  IC50: < 31.6 nM
Second compound 1 µM, first compound 0.0316 µM
  viability, T/C: 112%
Second compound 1 µM, first compound 0.1 µM
  viability, T/C: 75.2%
Second compound 1 µM, first compound 0.316 µM
  viability, T/C: 21%
Second compound 1 µM, first compound 1 µM
  viability, T/C: 5.68%
Second compound 1 µM, first compound 3.16 µM
  viability, T/C: 1.55%
Second compound 1 µM, first compound 10 µM
  viability, T/C: 2.68%
Second compound 3.16 µM, first compound 0.0316 µM
  viability, T/C: 120%
Second compound 3.16 µM, first compound 0.1 µM
  viability, T/C: 91.1%
Second compound 3.16 µM, first compound 0.316 µM
  viability, T/C: 15.7%
Second compound 3.16 µM, first compound 1 µM
  viability, T/C: 4.89%
Second compound 3.16 µM, first compound 3.16 µM
  viability, T/C: 1.74%
Second compound 3.16 µM, first compound 10 µM
  viability, T/C: 2.56%
Second compound 10 µM, first compound 0.0316 µM
  viability, T/C: 114%
Second compound 10 µM, first compound 0.1 µM
  viability, T/C: 47.9%
Second compound 10 µM, first compound 0.316 µM
  viability, T/C: 9.18%
Second compound 10 µM, first compound 1 µM
  viability, T/C: 5.1%
Second compound 10 µM, first compound 3.16 µM
  viability, T/C: 1.63%
Second compound 10 µM, first compound 10 µM
  viability, T/C: 2.11%
Second compound 31.6 µM, first compound 0.0316 µM
  viability, T/C: 110%
Second compound 31.6 µM, first compound 0.1 µM
  viability, T/C: 49.3%
Second compound 31.6 µM, first compound 0.316 µM
  viability, T/C: 8.98%
Second compound 31.6 µM, first compound 1 µM
  viability, T/C: 3.51%
Second compound 31.6 µM, first compound 3.16 µM
  viability, T/C: 1.69%
Second compound 31.6 µM, first compound 10 µM
  viability, T/C: 2.41%
Second compound 100 µM, first compound 0.0316 µM
  viability, T/C: 12%
Second compound 100 µM, first compound 0.1 µM
  viability, T/C: 4.47%
Second compound 100 µM, first compound 0.316 µM
  viability, T/C: 2.32%
Second compound 100 µM, first compound 1 µM
  viability, T/C: 1.6%
Second compound 100 µM, first compound 3.16 µM
  viability, T/C: 1.28%
Second compound 100 µM, first compound 10 µM
  viability, T/C: 2.24%
